Reference: publication PMC12261228 (ACS Pharmacology & Translational Science, 2025)

How the values were obtained:
Assay in all cases: MTS cytotoxicity assay, 72 h
[1] = test system: CCRF-CEM; assay type: cell-based; conditions: Homo sapiens, CCRF-CEM, 72 h; MTS assay, 3-day incubation, mean ± SD of 3 experiments; read-out: IC50 CCRF-CEM
[2] = test system: K562; assay type: cell-based; conditions: Homo sapiens, K562, 72 h; MTS assay, 3-day incubation, mean ± SD; read-out: IC50 K562
[3] = test system: HCT116; assay type: cell-based; conditions: Homo sapiens, HCT-116, 72 h; MTS assay, 3-day incubation, mean ± SD; read-out: IC50 HCT116
[4] = test system: HCT116p53–/–; assay type: cell-based; conditions: MTS assay, 3-day incubation, mean ± SD, read-out: IC50 HCT116p53–/–
[5] = test system: U2OS; assay type: cell-based, human; conditions: Homo sapiens, U2OS, 72 h; MTS assay, 3-day incubation, mean ± SD; read-out: IC50 U2OS
[6] = test system: MRC-5; assay type: cell-based; conditions: Homo sapiens, MRC5, 72 h; normal fibroblasts; MTS assay, 3-day incubation, mean ± SD; read-out: IC50 MRC-5
[7] = test system: BJ; assay type: cell-based; conditions: Homo sapiens, normal fibroblasts, MTS assay, 3-day incubation, mean ± SD, read-out: IC50 BJ
[8] = test system: A549; assay type: cell-based; conditions: Homo sapiens, Fig. S22
Description: Cell suspensions were prepared and diluted according to the particular cell type and the expected target cell density (500 – 4,000 cells/well). The cells (30 μL/well) were seeded to 384-well clear Corning plates by MultiDrop Combi (Thermo Fisher Scientific, USA). After 24 h the cells were treated with tested compounds as well as with vehicle (DMSO) and high controls (2.67 μM of Actinomycin D and 100 μM Mitomycin C) using contact-free acoustic liquid handler ECHO 555 (Labcyte, USA). Compounds were analyzed at a concentration range from 0.012 μM to 50 μM. Treated cells were incubated at 37 °C in a 5% CO2 atmosphere of a humidified incubator for 72 h. At the end of the incubation period, aliquots of the MTS (Promega) solution prepared according to manufacturer's instructions were added to cells (https://worldwide.promega.com/resources/protocols/technical-bulletins/0/celltiter-96-aqueous-nonradioactive-cell-proliferation-assay-protocol/). After 1 – 4 h of the incubation period, the optical density (OD) at 490 nm was measured on a multimode plate reader EnVision (PerkinElmer, USA). The experiments were performed in technical duplicates and at least three biological replicates. […] The assay quality was monitored by determining the Z′-factor for each 384-well plate. The resistance index (RI), representing the reduction in compound activity on resistant cell lines, was calculated as RI = (IC50 of resistant cell lines, CEM-DNR, K562-TAX)/(IC50 of nonresistant counterparts, CCRF-CEM, K562). Similarly, the selectivity index (SI), indicating preferential cytotoxicity toward tumor cell lines, was calculated as SI = (mean IC50 of nontumor cell lines, BJ and MRC5)/(mean IC50 of cancer cell lines without resistant variants, CCRF-CEM, K562, HCT116, HCT116p53–/–, U2OS).

[9] = test system: CEM-DNR; assay type: cell-based; conditions: Homo sapiens, daunorubicin-resistant, MTS assay, 3-day incubation, mean ± SD, read-out: IC50 CEM-DNR
[10] = test system: K562-TAX; assay type: cell-based; conditions: paclitaxel-resistant, MTS assay, 3-day incubation, mean ± SD, read-out: IC50 K562-TAX

| Structure (SMILES) | IC50 [1] | IC50 [2] | IC50 [3] | IC50 [4] | IC50 [5] | IC50 [6] | IC50 [7] | IC50 [8] | IC50 [9] | IC50 [10] |
| --- | --- | --- | --- | --- | --- | --- | --- | --- | --- | --- |
| CC1=CC(C)=[N+]2C1=C(CCC(=O)O)c1c(C)cc(C)n1[B-]2(F)F [B1] | > 50 µM | > 50 µM | > 50 µM | > 50 µM | > 50 µM | > 50 µM | > 50 µM | > 50 µM | – | – |
| CC1=CC(C)=[N+]2C1=C(CCCCCCCCCCC(=O)O)c1c(C)cc(C)n1[B-]2(F)F [B2] | > 50 µM | > 50 µM | > 50 µM | > 50 µM | > 50 µM | > 50 µM | > 50 µM | > 50 µM | – | – |
| CC1=CC(C)=[N+]2C1=C(CCCCBr)c1c(C)cc(C)n1[B-]2(F)F [B3, difluoro-1,3,5,7-tetramethyl-4-bora-3a,4a-diaza-s-indacene-8-yl)butyl bromide] | > 50 µM | > 50 µM | > 50 µM | > 50 µM | > 50 µM | > 50 µM | > 50 µM | > 50 µM | > 50 µM | > 50 µM |
| CC1=CC(C)=[N+]2C1=C(CCCCN)c1c(C)cc(C)n1[B-]2(F)F [B4] | 32.9 µM | > 50 µM | > 50 µM | > 50 µM | > 50 µM | > 50 µM | > 50 µM | > 50 µM | > 50 µM | > 50 µM |
| CNCCCCC1=C2C(C)=CC(C)=[N+]2[B-](F)(F)n2c(C)cc(C)c21 [B5] | 27.8 µM | > 50 µM | > 50 µM | > 50 µM | > 50 µM | > 50 µM | > 50 µM | > 50 µM | 36.3 µM | 35.8 µM |
| CC1=CC(C)=[N+]2C1=C(CCCCN(C)C)c1c(C)cc(C)n1[B-]2(F)F [B6] | > 50 µM | > 50 µM | > 50 µM | > 50 µM | > 50 µM | > 50 µM | > 50 µM | > 50 µM | > 50 µM | > 50 µM |
